Source: publication PMC6002953 (ACS chemical neuroscience, 2017)
Like-named read-outs stand apart in the source and are kept apart here.

How the values were obtained:
human OX1 receptor = target: T1, human OX1 receptor (Homo sapiens, UniProt O43613); test: Calcium mobilization Ke assay, OX1; assay type: cell-based; settings: for OX2/OX1: ratio of Ke values OX2/OX1
T1 sequence (O43613 1-425): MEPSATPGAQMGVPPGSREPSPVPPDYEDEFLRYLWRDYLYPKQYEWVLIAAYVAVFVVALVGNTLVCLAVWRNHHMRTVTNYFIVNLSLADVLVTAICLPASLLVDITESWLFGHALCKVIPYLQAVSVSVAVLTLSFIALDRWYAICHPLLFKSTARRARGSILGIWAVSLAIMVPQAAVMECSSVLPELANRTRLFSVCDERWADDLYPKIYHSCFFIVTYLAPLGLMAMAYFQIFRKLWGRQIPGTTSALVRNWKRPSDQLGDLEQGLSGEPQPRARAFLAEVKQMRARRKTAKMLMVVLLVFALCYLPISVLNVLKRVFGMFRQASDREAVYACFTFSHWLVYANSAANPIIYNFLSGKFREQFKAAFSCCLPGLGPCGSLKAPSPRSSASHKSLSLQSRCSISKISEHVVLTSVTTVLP

human OX2 receptor = target: T2, human OX2 receptor (Homo sapiens, UniProt O43614); test: Calcium mobilization Ke assay, OX2; assay type: cell-based; settings: for inhibition at 10 µM: read-out: Ke (OX2, nM) column: inhibition at 10 μM final concentration
T2 sequence (O43614 1-444): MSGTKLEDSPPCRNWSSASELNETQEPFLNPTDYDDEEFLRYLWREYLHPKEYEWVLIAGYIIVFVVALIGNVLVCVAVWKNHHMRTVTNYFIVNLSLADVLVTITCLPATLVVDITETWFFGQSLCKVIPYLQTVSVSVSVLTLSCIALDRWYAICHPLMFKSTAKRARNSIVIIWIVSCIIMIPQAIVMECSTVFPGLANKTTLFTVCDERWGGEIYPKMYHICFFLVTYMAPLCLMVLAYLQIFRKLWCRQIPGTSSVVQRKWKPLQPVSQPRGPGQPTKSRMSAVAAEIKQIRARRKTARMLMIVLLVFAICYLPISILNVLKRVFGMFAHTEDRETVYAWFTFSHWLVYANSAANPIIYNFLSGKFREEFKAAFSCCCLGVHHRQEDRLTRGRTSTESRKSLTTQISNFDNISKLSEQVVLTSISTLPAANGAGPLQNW

OX1 = settings: cited from earlier work
[1] = Ke (OX1, nM), compound appeared insurmountable during standard assay procedure, incubation increased to 1 hour

SMILES	Kd (human OX1 receptor)	OX2/OX1 (human OX1 receptor)	inhibition at 10 µM (human OX2 receptor)	Kd (human OX2 receptor)	other results
CCCOc1cc2c(cc1OC)CCN(CC(=O)NCc1ccccc1)C2Cc1ccc2ccccc2c1 (centres unmarked) [Compound 12a, N-Benzyl-2-[6-methoxy-1-(naphthalen-2-ylmethyl)-7-propoxy-1,2,3,4-tetrahydroisoquinolin-2-yl]acetamide]	121 ± 35 nM	>82.6	< 50%		
CCCOc1cc2c(cc1OC)CCN(CC(=O)NCc1ccccc1)C2Cc1ccc(C)c(C)c1 (centres unmarked) [Compound 12b, N-Benzyl-2-{1-[(3,4-dimethylphenyl)methyl]-6-methoxy-7-propoxy-1,2,3,4-tetrahydroisoquinolin-2-yl}acetamide]	28.8 ± 4.4 nM	>347	< 50%		
CCCOc1cc2c(cc1OC)CCN(CC(=O)NCc1ccccc1)C2Cc1ccc(C(C)C)cc1 (centres unmarked) [Compound 12c, N-Benzyl-2-(6-methoxy-1-{[4-(propan-2-yl)phenyl]methyl}-7-propoxy-1,2,3,4-tetrahydroisoquinolin-2-yl)acetamide]	141 ± 42 nM	>70.9	< 50%		
CCCOc1cc2c(cc1OC)CCN(CC(=O)NCc1ccccc1)C2Cc1ccc(N(C)C)cc1 (centres unmarked) [Compound 12d, N-Benzyl-2-(1-{[4-(dimethylamino)phenyl]methyl}-6-methoxy-7-propoxy-1,2,3,4-tetrahydroisoquinolin-2-yl)acetamide]	173 ± 5 nM	>58		> 10 µM	
CCCOc1cc2c(cc1OC)CCN(CC(=O)NCc1ccccc1)C2Cc1cccc(N(C)C)c1 (centres unmarked) [Compound 12f, N-Benzyl-2-(1-{[3-(dimethylamino)phenyl]methyl}-6-methoxy-7-propoxy-1,2,3,4-tetrahydroisoquinolin-2-yl)acetamide]	20.6 ± 2.8 nM	>485	< 50%		
CCCOc1cc2c(cc1OC)CCN(CC(=O)NCc1ccccc1)C2Cc1ccc(OCc2ccccn2)c(OC)c1 (centres unmarked) [Compound 12g, N-Benzyl-2-(6-methoxy-1-{[3-methoxy-4-(pyridin-2-ylmethoxy)phenyl]methyl}-7-propoxy-1,2,3,4-tetrahydroisoquinolin-2-yl)acetamide]	96.4 ± 34 nM	>104		> 10 µM	selectivity over OX2 (human OX1 receptor; OX1 over OX2, calcium mobilization assays): > 100 fold
COc1cc2c(cc1OCC(F)(F)F)C(Cc1ccc3ccccc3c1)N(CC(=O)NCc1cccnc1)CC2 (centres unmarked) [Compound 15a, 2-[6-Methoxy-1-(naphthalen-2-ylmethyl)-7-(2,2,2-trifluoroethoxy)-1,2,3,4-tetrahydroisoquinolin-2-yl]-N-(pyridin-3-ylmethyl)acetamide]	29.5 ± 2.2 nM	59		1.75 ± 0.23 µM	
COc1cc2c(cc1OCC(F)(F)F)C(Cc1ccc(C)c(C)c1)N(CC(=O)NCc1cccnc1)CC2 (centres unmarked) [Compound 15b, 2-{1-[(3,4-Dimethylphenyl)methyl]-6-methoxy-7-(2,2,2-trifluoroethoxy)-1,2,3,4-tetrahydroisoquinolin-2-yl}-N-(pyridin-3-ylmethyl)acetamide]	20.4 ± 2.9 nM	67		1.36 ± 0.15 µM	
COc1cc2c(cc1OCC(F)(F)F)C(Cc1ccccn1)N(CC(=O)NCc1ccccc1)CC2 (centres unmarked) [Compound 19a, N-Benzyl-2-[6-methoxy-1-(pyridin-2-ylmethyl)-7-(2,2,2-trifluoroethoxy)-1,2,3,4-tetrahydroisoquinolin-2-yl]acetamide]		>11	< 50%		Kd (human OX1 receptor; [1]): 884 ± 70 nM
COc1cc2c(cc1OCC(F)(F)F)C(Cc1cccnc1)N(CC(=O)NCc1ccccc1)CC2 (centres unmarked) [Compound 19b, N-Benzyl-2-[6-methoxy-1-(pyridin-3-ylmethyl)-7-(2,2,2-trifluoroethoxy)-1,2,3,4-tetrahydroisoquinolin-2-yl]acetamide]			< 50%		Kd (human OX1 receptor; [1]): > 10000 nM
COc1cc2c(cc1OCC(F)(F)F)C(Cc1ccncc1)N(CC(=O)NCc1ccccc1)CC2 (centres unmarked) [Compound 19c, N-Benzyl-2-[6-methoxy-1-(pyridin-4-ylmethyl)-7-(2,2,2-trifluoroethoxy)-1,2,3,4-tetrahydroisoquinolin-2-yl]acetamide]		>5.4	< 50%		Kd (human OX1 receptor; [1]): 1860 nM
COc1cc(CC2c3cc(OS(C)(=O)=O)c(OC)cc3CCN2CC(=O)NCc2ccccc2)ccc1OCc1ccccc1 (centres unmarked) [Compound 25a, 2-[(Benzylcarbamoyl)methyl]-1-{[4-(benzyloxy)-3-methoxyphenyl]methyl}-6-methoxy-1,2,3,4-tetrahydroisoquinolin-7-yl methanesulfonate]	43 ± 18 nM	>232	< 50%		
CCCCOc1ccc(CC2c3cc(OS(C)(=O)=O)c(OC)cc3CCN2CC(=O)NCc2ccccc2)cc1OC (centres unmarked) [Compound 25b, 2-[(Benzylcarbamoyl)methyl]-1-[(4-butoxy-3-methoxyphenyl)methyl]-6-methoxy-1,2,3,4-tetrahydroisoquinolin-7-yl methanesulfonate]	5.24 ± 1 nM	229		1.2 µM	
COc1cc2c(cc1N)C(Cc1ccc(OC)c(OC)c1)N(CC(=O)NCc1ccccc1)CC2 (centres unmarked) [Compound 33, 2-{7-Amino-1-[(3,4-dimethoxyphenyl)methyl]-6-methoxy-1,2,3,4-tetrahydroisoquinolin-2-yl}-N-benzylacetamide]	494 ± 32 nM	>20		> 10 µM	
COc1ccc(CC2c3cc(N(C)C)c(OC)cc3CCN2CC(=O)NCc2ccccc2)cc1OC (centres unmarked) [Compound 34a, N-Benzyl-2-{1-[(3,4-dimethoxyphenyl)methyl]-7-(dimethylamino)-6-methoxy-1,2,3,4-tetrahydroisoquinolin-2-yl}acetamide]	31.2 ± 3.3 nM	>321		> 10 µM	
COc1cc2c(cc1NCc1ccccc1)C(Cc1ccc(OC)c(OC)c1)N(CC(=O)NCc1ccccc1)CC2 (centres unmarked) [Compound 34b, N-Benzyl-2-[7-(benzylamino)-1-[(3,4-dimethoxyphenyl)methyl]-6-methoxy-1,2,3,4-tetrahydroisoquinolin-2-yl]acetamide]	352 ± 34 nM	>28	< 35%		
COc1cc2c(cc1NC(C)=O)C(Cc1ccc(OC)c(OC)c1)N(CC(=O)NCc1ccccc1)CC2 (centres unmarked) [Compound 34c, N-Benzyl-2-{1-[(3,4-dimethoxyphenyl)methyl]-7-acetamido-6-methoxy-1,2,3,4-tetrahydroisoquinolin-2-yl}acetamide]	116 ± 44 nM	>86		> 10 µM	
COc1cc2c(cc1NS(C)(=O)=O)C(Cc1ccc(OC)c(OC)c1)N(CC(=O)NCc1ccccc1)CC2 (centres unmarked) [Compound 34d, N-Benzyl-2-{1-[(3,4-dimethoxyphenyl)methyl]-7-methanesulfonamido-6-methoxy-1,2,3,4-tetrahydroisoquinolin-2-yl}acetamide]	128 ± 13 nM	>78		> 10 µM	
CCCC(=O)Nc1cc2c(cc1OC)CCN(CC(=O)NCc1ccccc1)C2Cc1ccc(OC)c(OC)c1 (centres unmarked) [Compound 34e, N-{2-[(Benzylcarbamoyl)methyl]-1-[(3,4-dimethoxyphenyl)methyl]-6-methoxy-1,2,3,4-tetrahydroisoquinolin-7-yl}butanamide]	689 ± 73 nM	>14.5		> 10 µM	
COC(=O)Nc1cc(CC2c3cc(NC(=O)OC)c(OC)cc3CCN2CC(=O)NCc2ccccc2)ccc1OC (centres unmarked) [Compound 38, Methyl N-{2-[(Benzylcarbamoyl)methyl]-6-methoxy-1-({4-methoxy-3-[(methoxycarbonyl)amino]phenyl}methyl)-1,2,3,4-tetrahydroisoquinolin-7-yl}carbamate]	> 10000 nM			0.592 ± 0.17 µM	
COc1ccc(CC2c3cc(N(C)C)c(OC)cc3CCN2CC(=O)NCc2ccccc2)cc1N(C)C (centres unmarked) [Compound 39, N-Benzyl-2-[7-(dimethylamino)-1-{[3-(dimethylamino)-4-methoxyphenyl]methyl}-6-methoxy-1,2,3,4-tetrahydroisoquinolin-2-yl]acetamide]	7.6 ± 2.8 nM	113		0.857 ± 0.22 µM	
COc1cc2c(cc1N(C)C)C(Cc1cccc(N(C)C)c1)N(CC(=O)NCc1ccccc1)CC2 (centres unmarked) [Compound 42, N-Benzyl-2-[7-(dimethylamino)-1-{[3-(dimethylamino)phenyl]methyl}-6-methoxy-1,2,3,4-tetrahydroisoquinolin-2-yl]acetamide]	148 ± 36 nM	9.1		1.36 µM	
Cc1nc2ccc(NC(=O)Nc3ccnc4cccnc34)cc2o1 [SB334867]					selectivity over OX2 (OX1): 50 ×; selectivity over OX2 (OX1; listed as 3): ~ 50 ×; IC50 (OX1; read-out: IC50 (OX1), commonly used OX1 antagonist): 0.04 µM
